# Where a SMILES comes first, the peptide text is derived from it. [ ]: non-standard residue; d: D form. The star is where a group is joined. Sta = CC(C)C[C@H](N)[C@@H](O)CC(=O)O; Isovaleryl = CC(C)CC(=O)*
# Assays:
# cathepsins L = conditions: in the presence of urea; cited from earlier work
# cathepsins D = conditions: in the presence of urea; cited from earlier work
# [1] = test system: cysteine-dependent protease of the G4 peak; test: Protease activity of G4 peak fractions (Enzcheck kit, BODIPYfl-caséine fluorometry) with or without known protease inhibitors, 5 mM cysteine; type: biochemical, human
# Experimental: The protease activities contained in the fractions obtained by transporting over the Superdex G75 HR10/30® exclusion column were assayed by fluorometry using the Enzcheck® kit (Molecular Probes).
# This kit is a rapid and simple method of measuring the protease activities, with no precipitation or separation phase and is therefore suitable for rapid screening of the protease activities of the different fractions. This protocol employs, as substrate therefor, BODIPYfl-caséine® which becomes fluorescent after enzymatic digestion. The fluorescence thus liberated is directly proportional to the protease activity contained in the sample. The fluorescence was measured on the LS50B spectrofluorometer, Perkin Elmer, with an excitation wavelength of 485 nm (slit of 2.5 nm), an emission wavelength of 535 nm (slit of 8 nm) and an integration time of 1 second per well.
# The assays were carried out in the presence or absence of cysteine at a final concentration of 5 mM so as to detect possible cysteine protease activities.
# In order to better characterize the cysteine-dependent protease isolated above, tests of inhibition by known protease inhibitors were carried out. The measurements were carried out in an identical manner to the preceding measurements in the presence of cysteine at a final concentration of 5 mM and in the presence or absence (control) of the inhibitor considered.
# L cathepsins = L cathepsins (Homo sapiens, UniProt P07711); conditions: cited from earlier work
# Chain of L cathepsins (P07711 114-333): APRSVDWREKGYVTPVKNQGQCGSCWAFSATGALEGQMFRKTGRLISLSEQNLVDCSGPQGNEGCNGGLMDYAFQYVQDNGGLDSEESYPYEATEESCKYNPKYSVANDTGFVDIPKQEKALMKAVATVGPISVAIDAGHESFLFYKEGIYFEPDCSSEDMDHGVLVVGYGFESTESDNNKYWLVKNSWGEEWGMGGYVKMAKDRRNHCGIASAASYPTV
compound,measurement,setting,value
"NC(N)=O [urea, Urea]",factor by which cathepsin L activity is multiplied,cathepsins L,2.5
same,factor by which cathepsin D activity is multiplied,cathepsins D,6
CC(=O)N[C@@H](CC(C)C)C(=O)N[C@@H](CC(C)C)C(=O)N[C@H](C=O)CCCNC(=N)N [Leupeptin],reduction of the protease activity of G4,"[1]; leupeptin at 1 μM, in the presence of cysteine",about 41%
"CC(C)C[C@H](NC(=O)[C@@H](NC(=O)N[C@@H](Cc1ccccc1)C(=O)O)[C@@H]1CCN=C(N)N1)C(=O)N[C@H](C=O)Cc1ccccc1 [chymostatin, Chymostatin]",inhibition of the cysteine-dependent protease of peak G4,"[1]; chymostatin at 2.5 μM, 5 mM cysteine",more than 50%
Z(phe-arg 2R110),sensitivity to the action of the L cathepsins relative to the B cathepsins,L cathepsins,850 times
CC(C)C[C@H](NC(=O)[C@H]1O[C@@H]1C(=O)O)C(=O)NCCCCN=C(N)N [E 64],inhibition of the activity of the cysteine-dependent protease of the G4 peak,"[1]; E 64 at 1.4 μM, 5 mM cysteine, acetate buffer pH 5.0",about 71%
CC(C)CC(=O)N[C@H](C(=O)N[C@H](C(=O)N[C@@H](CC(C)C)[C@@H](O)CC(=O)N[C@@H](C)C(=O)N[C@@H](CC(C)C)[C@@H](O)CC(=O)O)C(C)C)C(C)C [Pepstatin] (Isovaleryl-VV[Sta]A[Sta]-OH),action on G4 protease activity,"[1]; pepstatin at 1 μM, 5 mM cysteine",without action
"CCCNC(=O)[C@H]1O[C@@H]1C(=O)N[C@H](C(=O)N1CCC[C@H]1C(=O)O)[C@@H](C)CC [Inhibitor CA 074, CA 074]",effect on the activity profile of the cysteine-dependent protease of peak G4,"[1]; 1 μM, 5 mM cysteine","practically, did not affect the activity profile"

# Reference: patent US6737055B2, “Isolated cathepsin L type cysteine proteases and reducing intercorneocyte cohesion/promoting desquamation therewith” (Societe l'Oreal S.A., priority 1997, dated 2004)
